Values after ≈ are worked out from the molar mass of the structure shown.
Assays:
[1] = haloperidol alone
[2] = physchem
[3] = haloperidol, background statement; cited from earlier work

O=C(CCCN1CCC(O)(c2ccc(Cl)cc2)CC1)c1ccc(F)cc1 [haloperidol, 4-[4-(-chlorophenyl)-4-hydroxy-1-piperidnyl]-1-(4-fluorophenyl)-1-butanone]
osmotic pressure (in words) [1]: near zero osmotic pressure | solubility ([2]; aqueous citric acid): 165 mg/mL (≈ 439 mM) | solubility ([2]; aqueous maleic acid): > 200 mg/mL | solubility ([2]; aqueous malic acid): > 250 mg/mL | solubility ([2]; water): < 0.1 mg/mL | solubility in water (in words, background) [3]: practically insoluble in water

From patent US4610686A, “Controlled delivery of haloperidol by an osmotic delivery system” (ALZA Corporation, priority 1983, dated 1986)
